{
  "source": "ChEMBL document CHEMBL5154859",
  "about": "“Targeting the Aryl Hydrocarbon Receptor with Microbial Metabolite Mimics Alleviates Experimental Colitis in Mice” (J Med Chem, 2022)",
  "key": {"[1]": {"molecular_target": "T1, Aryl hydrocarbon receptor (Mus musculus, UniProt P30561)", "T1 sequence (P30561 whole entry)": "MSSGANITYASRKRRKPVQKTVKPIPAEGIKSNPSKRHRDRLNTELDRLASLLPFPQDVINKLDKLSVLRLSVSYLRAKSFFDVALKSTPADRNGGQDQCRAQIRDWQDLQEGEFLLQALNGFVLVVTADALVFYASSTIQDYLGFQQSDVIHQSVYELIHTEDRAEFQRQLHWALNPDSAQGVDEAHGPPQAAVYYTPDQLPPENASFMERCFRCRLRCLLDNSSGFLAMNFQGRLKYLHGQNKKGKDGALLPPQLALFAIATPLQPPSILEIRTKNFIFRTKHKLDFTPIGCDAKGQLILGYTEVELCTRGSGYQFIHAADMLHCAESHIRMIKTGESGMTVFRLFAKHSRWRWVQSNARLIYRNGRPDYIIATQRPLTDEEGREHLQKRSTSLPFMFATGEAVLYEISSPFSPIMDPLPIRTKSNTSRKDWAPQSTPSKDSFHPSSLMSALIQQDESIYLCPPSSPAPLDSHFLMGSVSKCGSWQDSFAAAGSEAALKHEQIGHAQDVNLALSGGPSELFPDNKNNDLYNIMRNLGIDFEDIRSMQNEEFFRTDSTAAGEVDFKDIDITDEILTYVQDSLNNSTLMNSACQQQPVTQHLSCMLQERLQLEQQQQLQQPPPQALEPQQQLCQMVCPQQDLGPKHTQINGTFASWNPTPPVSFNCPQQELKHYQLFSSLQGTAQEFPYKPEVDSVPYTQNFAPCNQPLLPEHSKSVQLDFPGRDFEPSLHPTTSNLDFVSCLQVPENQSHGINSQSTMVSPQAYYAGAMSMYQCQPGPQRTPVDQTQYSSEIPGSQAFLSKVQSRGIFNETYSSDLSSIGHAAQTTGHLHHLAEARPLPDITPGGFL", "assay": "Agonist activity at AhR in mouse Hepa2Dluc cells", "type": "cell-based"}, "[2]": {"assay": "Metabolic stability in mouse plasma assessed as half life by LC/MS analysis", "type": "ADME, cell-free"}, "[3]": {"molecular_target": "T2, Aryl hydrocarbon receptor (Homo sapiens, UniProt P35869)", "T2 sequence (P35869 whole entry)": "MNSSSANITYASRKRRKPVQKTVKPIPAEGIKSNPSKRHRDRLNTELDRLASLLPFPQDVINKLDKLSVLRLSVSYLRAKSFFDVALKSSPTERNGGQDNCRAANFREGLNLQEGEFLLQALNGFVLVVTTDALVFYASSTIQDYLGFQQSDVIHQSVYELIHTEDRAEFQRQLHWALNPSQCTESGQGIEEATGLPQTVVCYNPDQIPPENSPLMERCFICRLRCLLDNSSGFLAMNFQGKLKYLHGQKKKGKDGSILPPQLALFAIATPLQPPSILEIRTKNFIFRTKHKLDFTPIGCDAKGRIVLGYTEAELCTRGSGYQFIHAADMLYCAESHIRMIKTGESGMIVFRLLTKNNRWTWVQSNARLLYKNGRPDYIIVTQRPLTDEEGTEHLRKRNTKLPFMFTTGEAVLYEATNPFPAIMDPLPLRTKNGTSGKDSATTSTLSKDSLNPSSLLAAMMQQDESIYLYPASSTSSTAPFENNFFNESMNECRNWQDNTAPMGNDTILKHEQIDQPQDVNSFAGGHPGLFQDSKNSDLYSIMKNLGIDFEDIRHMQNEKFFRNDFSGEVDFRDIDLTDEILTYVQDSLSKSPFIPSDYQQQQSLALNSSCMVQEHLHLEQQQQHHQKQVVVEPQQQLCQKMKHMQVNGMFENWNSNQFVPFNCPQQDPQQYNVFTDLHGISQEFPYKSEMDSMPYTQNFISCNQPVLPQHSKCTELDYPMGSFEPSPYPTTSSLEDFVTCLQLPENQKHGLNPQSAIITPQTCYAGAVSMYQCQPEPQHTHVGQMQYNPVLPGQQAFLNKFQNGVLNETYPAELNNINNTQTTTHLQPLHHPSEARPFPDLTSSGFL", "assay": "Agonist activity at AhR in human AZ-AHR reporter cell derived from human HepG2 cells assessed as increase in luciferase activity at 1 uM measured after 8 to 24 hrs", "type": "cell-based", "conditions": "TDE = time-dependent effect, time 8-24 hrs; call rule not given here"}, "[4]": {"molecular_target": "T3, AhR (aryl hydrocarbon receptor) (Homo sapiens, UniProt P35869)", "T3 sequence (P35869 whole entry)": "T2 sequence (P35869 whole entry)", "assay": "Agonist activity at AhR (unknown origin) transfected in human AZ-AHR reporter cells derived from human HepG2 cells assessed as relative efficacy incubated for 4 hrs by luciferase reporter gene assay relative to control", "type": "cell-based", "conditions": "read-out: Efficacy"}, "[5]": {"molecular_target": "T1, Aryl hydrocarbon receptor", "assay": "Displacement of [3H]TCDD from mouse AhR expressed in mouse Hepa1c1c7 cells cytosol incubated for 2 hrs by competitive radioligand binding assay", "type": "subcellular"}, "[6]": {"molecular_target": "T2, Aryl hydrocarbon receptor", "assay": "Agonist activity at AhR (unknown origin) transfected in human AZ-AHR reporter cells derived from human HepG2 cells incubated for 4 hrs by luciferase reporter gene assay", "type": "cell-based", "conditions": "for Activity: human, az-ahr, 4 h, DDE = dose-dependent effect"}, "[7]": {"molecular_target": "T2, Aryl hydrocarbon receptor", "assay": "Agonist activity at AhR in human LS180 cell lysates assessed as induction of AhR-ARNT heterodimerization at 1 uM incubated for 90 mins by co-immunoprecipitation assay", "type": "subcellular", "conditions": "ls180, 1.5 h"}, "[8]": {"molecular_target": "T2, Aryl hydrocarbon receptor", "assay": "Agonist activity at AhR in human LS180 cells assessed as induction of nuclear translocation at 1 uM incubated for 90 mins by DAPI staining based confocal fluorescence microscopic analysis", "type": "cell-based", "conditions": "ls180, 1.5 h"}, "[9]": {"molecular_target": "T2, Aryl hydrocarbon receptor", "assay": "Agonist activity at AhR in human LS180 cells assessed as binding of AhR to CYP1A1 promoter gene at 1 uM incubated for 90 mins by chromatin immunoprecipitation assay", "type": "cell-based", "conditions": "ls180, 1.5 h"}, "[10]": {"molecular_target": "T4, Nuclear receptor subfamily 1 group I member 2 (Homo sapiens, UniProt O75469)", "T4 sequence (O75469 whole entry)": "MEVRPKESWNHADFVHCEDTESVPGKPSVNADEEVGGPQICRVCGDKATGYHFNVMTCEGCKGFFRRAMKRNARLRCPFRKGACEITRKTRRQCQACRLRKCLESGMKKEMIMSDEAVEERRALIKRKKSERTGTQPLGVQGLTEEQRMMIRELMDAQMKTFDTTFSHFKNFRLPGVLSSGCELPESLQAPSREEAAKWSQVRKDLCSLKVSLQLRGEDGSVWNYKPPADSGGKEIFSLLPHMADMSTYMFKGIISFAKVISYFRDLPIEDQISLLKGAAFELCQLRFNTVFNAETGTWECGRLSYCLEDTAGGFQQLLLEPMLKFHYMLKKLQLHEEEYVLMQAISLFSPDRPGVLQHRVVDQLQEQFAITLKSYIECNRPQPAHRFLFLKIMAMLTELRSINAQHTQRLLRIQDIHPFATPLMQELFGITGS", "assay": "Agonist activity at human PXR transfected in human LS180 cells cotransfected with luciferase reporter plasmid p2A4-Luc assessed as transcriptional activity incubated for 24 hrs by luciferase reporter assay", "type": "cell-based"}, "[11]": {"molecular_target": "T4, Nuclear receptor subfamily 1 group I member 2", "assay": "Displacement of fluorescence labeled ligand from human PXR ligand binding domain by Lanthascreen TR-FRET assay"}, "[12]": {"assay": "Stability in cell-free culture media assessed as parent compound remaining at 1 uM incubated for 12 hrs in presence of serum by LC/MS analysis", "type": "physicochemical", "conditions": "cell-free culture media with serum, read-out: Stability"}},
  "data": [
    {"smiles": "COC(=O)c1csc(C(=O)c2c[nH]c3ccccc23)n1", "values": [
      {"measurement": "EC50", "setting": "[1]", "result": 10, "unit": "nM"},
      {"measurement": "half-life", "setting": "[2]", "result": 44, "unit": "min"},
      {"measurement": "Activity", "setting": "[3]", "result": "Tde"},
      {"measurement": "Emax at 4 h", "setting": "[4]", "result": 131, "unit": "%"},
      {"measurement": "Ki", "setting": "[5]", "result": 10, "unit": "nM"}
    ]},
    {"smiles": "C=CCn1cc(C(=O)c2nccs2)c2ccccc21", "values": [
      {"measurement": "Emax at 4 h", "setting": "[4]", "result": 63.9, "unit": "%"},
      {"measurement": "Activity", "setting": "[6]", "result": "Dde"}
    ]},
    {"smiles": "COc1cc(Cn2cc(C(=O)c3nccs3)c3ccccc32)cc(OC)c1", "values": [
      {"measurement": "Emax at 4 h", "setting": "[4]", "result": 57, "unit": "%"},
      {"measurement": "Activity", "setting": "[6]", "result": "Dde"}
    ]},
    {"smiles": "COc1ccc(Cn2cc(C(=O)c3nccs3)c3ccccc32)cc1", "values": [
      {"measurement": "Activity", "setting": "[7]", "result": "Active"},
      {"measurement": "Activity", "setting": "[8]", "result": "Active"},
      {"measurement": "Activity", "setting": "[3]", "result": "Tde"},
      {"measurement": "Emax at 4 h", "setting": "[4]", "result": 133, "unit": "%"},
      {"measurement": "Ki", "setting": "[5]", "result": 800, "unit": "nM"},
      {"measurement": "Activity", "setting": "[9]", "result": "Active"},
      {"measurement": "EC50", "setting": "[6]", "result": 110, "unit": "nM"}
    ]},
    {"smiles": "O=C(c1nccs1)c1cn(C(=O)c2ccccc2)c2ccccc12", "values": [
      {"measurement": "Emax at 4 h", "setting": "[4]", "result": 81.4, "unit": "%"},
      {"measurement": "Activity", "setting": "[6]", "result": "Dde"}
    ]},
    {"smiles": "Cn1cc(C(=O)c2nccs2)c2ccccc21", "values": [
      {"measurement": "Emax at 4 h", "setting": "[4]", "result": 62.9, "unit": "%"},
      {"measurement": "Activity", "setting": "[6]", "result": "Dde"}
    ]},
    {"smiles": "CC(=O)n1cc(C(=O)c2nccs2)c2ccccc21", "values": [
      {"measurement": "Emax at 4 h", "setting": "[4]", "result": 106, "unit": "%"},
      {"measurement": "Activity", "setting": "[6]", "result": "Dde"}
    ]},
    {"smiles": "CNC(=O)c1csc(C(=O)c2c[nH]c3ccccc23)n1", "values": [
      {"measurement": "EC50", "setting": "[10]", "result": 12000, "unit": "nM"},
      {"measurement": "IC50", "setting": "[11]", "result": 32100, "unit": "nM"},
      {"measurement": "remaining at 12 h, 1 µM", "setting": "[12]", "result": 5, "unit": "%"}
    ]}
  ]
}
